{"source": "patent US9101547B2", "about": "“Enteric-coated capsule containing cationic nanoparticles for oral insulin delivery” (NANO AND ADVANCED MATERIALS INSTITUTE LIMITED, priority 2011, dated 2015)", "test_system": "diabetic rats", "test": "In vivo study after administration in diabetic rats (blood glucose level-time profiles)", "experimental": "The effect of insulin-loaded nanoparticles on the blood glucose levels is shown by comparing with that of the S.C. injection of insulin. […] SC injection of the insulin solution produces a sharp decrease in blood glucose level (90% in 2 h), which gradually returns to the basal level at 10 h, whereas the hypoglycemia effect is less significant after oral administration of the enteric-coated capsules which produces a slower but prolonged reduction in blood glucose level. The blood glucose level of the diabetic rats increases slightly during the first 4 hours of the experiment, possibly due to physical stress during handling and blood sampling. The hypoglycemic effect and the pharmacological availability (PA) of the enteric-coated capsule, determined by the dose-corrected AAC0-24h over 24 h relative to SC free-form insulin, as noted in Table 4, are 32.9% and 9.2%, respectively.", "data": [{"substance": "insulin [Insulin free-form (SC)]", "values": [{"measurement": "hypoglycemic effect (FIG. 4)", "value": "significant hypoglycemic effect"}, {"measurement": "time at which blood glucose returns to the basal level", "setting": "SC injection", "value": 10, "unit": "h"}, {"measurement": "decrease in blood glucose level", "setting": "SC injection, in 2 h", "value": 90, "unit": "%"}, {"measurement": "PA (pharmacological availability)", "setting": "dose-corrected AAC0-24h relative to SC free-form insulin", "value": 100, "unit": "%"}, {"measurement": "Cmin = minimum relative basal glucose concentration in the blood", "setting": "mean ± SD, n = 3 per group", "value": "11.72 ± 1.1", "unit": "%"}, {"measurement": "AAC0-24 h", "setting": "n = 3 per group", "value": 1008, "unit": "% h"}, {"measurement": "Tmax = time at minimum relative basal glucose concentration in the blood", "setting": "n = 3 per group", "value": 2, "unit": "h"}, {"measurement": "Hypoglycemic Effect", "setting": "over 24 h, n = 3 per group", "value": 35.2, "unit": "%"}]}]}
